Source: patent publication US20220259593A1, “CONTROL OF MAMMALIAN GENE DOSAGE USING CRISPR” (The Regents of the University of California, priority 2019, published 2022)

Columns and labels:
K562 CRISPRi cells [1] = assay: Perturb-seq pooled growth measurement (sgRNA counts, growth phenotype γ, relative activity); format: cell-based, human; conditions: for gamma_day5 / gamma_day10: pooled growth phenotype γ of the Perturb-seq sgRNA; for gamma_day5: day 5, K562 CRISPRi cells; for gamma_day10: day 10, K562 CRISPRi cells; for relative_activity_day5: γ relative to perfectly matched sgRNA (_00) of the same gene, day 5
Method in brief: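 sgRNA abundance was sequenced from genomic DNA of the same transduced population sampled on days two, seven and twelve. Phenotype γ compares normalized day seven and twelve counts with day two. Day-seven values (five days of growth) define relative sgRNA activity.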

K562 CRISPRi cells [2] = assay: as above; format: cell-based, human; conditions: γ relative to perfectly matched sgRNA (_00) of the same gene, day 10

Q: What does the source list for “CAD_ + _27440280.23-P1P2_13 (guide GGCTGGAGAGAAGCCTGGCG; listed as DNA, chemistry not fully specified)”?
A: gamma_day5 (K562 CRISPRi cells [1]): −0.1861; gamma_day10 (K562 CRISPRi cells [1]): −0.1648; relative_activity_day5 (K562 CRISPRi cells [1]): 0.2413; relative_activity_day10 (K562 CRISPRi cells [2]): 0.241

Q: Which gamma_day5 (K562 CRISPRi cells [1]) does the source give for “CDC23_ −_137548987.23-P1P2_00 (guide GACAGCCACCGGGACCATGG; listed as DNA, chemistry not fully specified)” here?
A: −1.176

Q: And the gamma_day10 (K562 CRISPRi cells [1])?
A: −0.6584

Q: What about the relative_activity_day5 (K562 CRISPRi cells [1]) of the same substance?
A: 1

Q: And the relative_activity_day10 (K562 CRISPRi cells [2])?
A: 1

Q: For “CDC23_ −_137548987.23-P1P2_02 (guide GACAGCTACCGGGACCATGG; listed as DNA, chemistry not fully specified)”, which gamma_day5 (K562 CRISPRi cells [1]) is on record?
A: −1.087

Q: What about the gamma_day10 (K562 CRISPRi cells [1]) of the same substance?
A: −0.5705

Q: What about the relative_activity_day5 (K562 CRISPRi cells [1]) of the same substance?
A: 0.9238

Q: What about the relative_activity_day10 (K562 CRISPRi cells [2]) of the same substance?
A: 0.8665

Q: For “CDC23_ −_137548987.23-P1P2_04 (guide GACAGCCAACGGGACCATGG; listed as DNA, chemistry not fully specified)”, which gamma_day5 (K562 CRISPRi cells [1]) is on record?
A: −0.8887

Q: And the gamma_day10 (K562 CRISPRi cells [1])?
A: −0.5364

Q: What about the relative_activity_day5 (K562 CRISPRi cells [1]) of the same substance?
A: 0.7556

Q: What about the relative_activity_day10 (K562 CRISPRi cells [2]) of the same substance?
A: 0.8148

Q: How did the gamma_day5 (K562 CRISPRi cells [1]) turn out when “CDC23_ −_137548987.23-P1P2_08 (guide GACAGCCATCGGGACCATGG; listed as DNA, chemistry not fully specified)” was run?
A: −0.9559

Q: And the gamma_day10 (K562 CRISPRi cells [1])?
A: −0.5501

Q: What about the relative_activity_day5 (K562 CRISPRi cells [1]) of the same substance?
A: 0.8128

Q: And the relative_activity_day10 (K562 CRISPRi cells [2])?
A: 0.8355

Q: What does the source list for “CDC23_ −_137548987.23-P1P2_11 (guide GACAGCCACCGGGACCACGG; listed as DNA, chemistry not fully specified)”?
A: gamma_day5 (K562 CRISPRi cells [1]): −0.2745; gamma_day10 (K562 CRISPRi cells [1]): −0.2018; relative_activity_day5 (K562 CRISPRi cells [1]): 0.2334; relative_activity_day10 (K562 CRISPRi cells [2]): 0.3065

Q: How did the gamma_day5 (K562 CRISPRi cells [1]) turn out when “COX11_ + _53045977.23-P1P2_00 (guide GGCTCTGGCGTCCTGGATGG; listed as DNA, chemistry not fully specified)” was run?
A: −0.1817

Q: And the gamma_day10 (K562 CRISPRi cells [1])?
A: −0.2988

Q: What about the relative_activity_day5 (K562 CRISPRi cells [1]) of the same substance?
A: 1

Q: What about the relative_activity_day10 (K562 CRISPRi cells [2]) of the same substance?
A: 1

Q: Which results are given for “COX11_ + _53045977.23-P1P2_03 (guide GGCTCTGTCGTCCTGGATGG; listed as DNA, chemistry not fully specified)”?
A: gamma_day5 (K562 CRISPRi cells [1]): −0.1719; gamma_day10 (K562 CRISPRi cells [1]): −0.2875; relative_activity_day5 (K562 CRISPRi cells [1]): 0.9463; relative_activity_day10 (K562 CRISPRi cells [2]): 0.9622

Q: For “COX11_ + _53045977.23-P1P2_04 (guide GGCTCTGGCGCCCTGGATGG; listed as DNA, chemistry not fully specified)”, which gamma_day5 (K562 CRISPRi cells [1]) is on record?
A: −0.1495

Q: And the gamma_day10 (K562 CRISPRi cells [1])?
A: −0.2574

Q: What about the relative_activity_day5 (K562 CRISPRi cells [1]) of the same substance?
A: 0.8227

Q: What about the relative_activity_day10 (K562 CRISPRi cells [2]) of the same substance?
A: 0.8616

Q: With “COX11_ + _53045977.23-P1P2_05 (guide GGCTCTGGCGTCTTGGATGG; listed as DNA, chemistry not fully specified)” as the substance, how does the gamma_day5 (K562 CRISPRi cells [1]) read?
A: −0.0555

Q: And the gamma_day10 (K562 CRISPRi cells [1])?
A: −0.108

Q: And the relative_activity_day5 (K562 CRISPRi cells [1])?
A: 0.3055

Q: And the relative_activity_day10 (K562 CRISPRi cells [2])?
A: 0.3613

Q: “COX11_ + _53045977.23-P1P2_10 (guide GGCTCTGGCGTCCCGGATGG; listed as DNA, chemistry not fully specified)” was tested. Which gamma_day5 (K562 CRISPRi cells [1]) did it give?
A: −0.1247

Q: What about the gamma_day10 (K562 CRISPRi cells [1]) of the same substance?
A: −0.1116

Q: What about the relative_activity_day5 (K562 CRISPRi cells [1]) of the same substance?
A: 0.6866

Q: And the relative_activity_day10 (K562 CRISPRi cells [2])?
A: 0.3734

Q: Which gamma_day5 (K562 CRISPRi cells [1]) does the source give for “DBR1_ + _137893744.23-P1P2_00 (guide GTTTGCAGGAGTCTACACCC; listed as DNA, chemistry not fully specified)” here?
A: −0.4556

Q: And the gamma_day10 (K562 CRISPRi cells [1])?
A: −0.4893

Q: What about the relative_activity_day5 (K562 CRISPRi cells [1]) of the same substance?
A: 1

Q: And the relative_activity_day10 (K562 CRISPRi cells [2])?
A: 1

Q: What does the source list for “DBR1_ + _137893744.23-P1P2_01 (guide GATTGCAGGAGTCTACACCC; listed as DNA, chemistry not fully specified)”?
A: gamma_day5 (K562 CRISPRi cells [1]): −0.5119; gamma_day10 (K562 CRISPRi cells [1]): −0.5474; relative_activity_day5 (K562 CRISPRi cells [1]): 1.124; relative_activity_day10 (K562 CRISPRi cells [2]): 1.119

Q: What does the source list for “DBR1_ + _137893744.23-P1P2_05 (guide GTTTGCAGGAGTGTACACCC; listed as DNA, chemistry not fully specified)”?
A: gamma_day5 (K562 CRISPRi cells [1]): −0.3102; gamma_day10 (K562 CRISPRi cells [1]): −0.3094; relative_activity_day5 (K562 CRISPRi cells [1]): 0.6809; relative_activity_day10 (K562 CRISPRi cells [2]): 0.6323

Q: What does the source list for “DBR1_ + _137893744.23-P1P2_07 (guide GTTTGCAGGGGTCTACACCC; listed as DNA, chemistry not fully specified)”?
A: gamma_day5 (K562 CRISPRi cells [1]): −0.5167; gamma_day10 (K562 CRISPRi cells [1]): −0.468; relative_activity_day5 (K562 CRISPRi cells [1]): 1.134; relative_activity_day10 (K562 CRISPRi cells [2]): 0.9563

Q: What does the source list for “DBR1_ + _137893744.23-P1P2_08 (guide GTTTGCAGTAGTCTACACCC; listed as DNA, chemistry not fully specified)”?
A: gamma_day5 (K562 CRISPRi cells [1]): −0.03529; gamma_day10 (K562 CRISPRi cells [1]): −0.05261; relative_activity_day5 (K562 CRISPRi cells [1]): 0.07746; relative_activity_day10 (K562 CRISPRi cells [2]): 0.1075

Q: How did the gamma_day5 (K562 CRISPRi cells [1]) turn out when “DUT_ + _48624411.23-P1P2_00 (guide GCGAGCGAGGAGACCACCGG; listed as DNA, chemistry not fully specified)” was run?
A: −0.7929

Q: What about the gamma_day10 (K562 CRISPRi cells [1]) of the same substance?
A: −0.6457

Q: And the relative_activity_day5 (K562 CRISPRi cells [1])?
A: 1

Q: What about the relative_activity_day10 (K562 CRISPRi cells [2]) of the same substance?
A: 1

Q: “DUT_ + _48624411.23-P1P2_01 (guide GCCAGCGAGGAGACCACCGG; listed as DNA, chemistry not fully specified)” was tested. Which gamma_day5 (K562 CRISPRi cells [1]) did it give?
A: −0.7924

Q: And the gamma_day10 (K562 CRISPRi cells [1])?
A: −0.6032

Q: And the relative_activity_day5 (K562 CRISPRi cells [1])?
A: 0.9993

Q: And the relative_activity_day10 (K562 CRISPRi cells [2])?
A: 0.9341

Q: What does the source list for “DUT_ + _48624411.23-P1P2_07 (guide GCGAGCGAGGAGCCCACCGG; listed as DNA, chemistry not fully specified)”?
A: gamma_day5 (K562 CRISPRi cells [1]): −0.7197; gamma_day10 (K562 CRISPRi cells [1]): −0.4998; relative_activity_day5 (K562 CRISPRi cells [1]): 0.9077; relative_activity_day10 (K562 CRISPRi cells [2]): 0.774

Q: What does the source list for “DUT_ + _48624411.23-P1P2_08 (guide GCGAGCGAGGAGGCCACCGG; listed as DNA, chemistry not fully specified)”?
A: gamma_day5 (K562 CRISPRi cells [1]): −0.7725; gamma_day10 (K562 CRISPRi cells [1]): −0.5862; relative_activity_day5 (K562 CRISPRi cells [1]): 0.9742; relative_activity_day10 (K562 CRISPRi cells [2]): 0.9077

Q: Which gamma_day5 (K562 CRISPRi cells [1]) does the source give for “DUT_ + _48624411.23-P1P2_10 (guide GCGAGCGAGGAGACCAACGG; listed as DNA, chemistry not fully specified)” here?
A: −0.3864

Q: And the gamma_day10 (K562 CRISPRi cells [1])?
A: −0.3196

Q: And the relative_activity_day5 (K562 CRISPRi cells [1])?
A: 0.4873

Q: And the relative_activity_day10 (K562 CRISPRi cells [2])?
A: 0.4949

Q: For “EIF2S1_ −_67827080.23-P1P2_00 (guide GAGCGAAGCGCACGCTGAGG; listed as DNA, chemistry not fully specified)”, which gamma_day5 (K562 CRISPRi cells [1]) is on record?
A: −0.9047

Q: And the gamma_day10 (K562 CRISPRi cells [1])?
A: −0.5155

Q: What about the relative_activity_day5 (K562 CRISPRi cells [1]) of the same substance?
A: 1

Q: And the relative_activity_day10 (K562 CRISPRi cells [2])?
A: 1

Q: Which gamma_day5 (K562 CRISPRi cells [1]) does the source give for “EIF2S1_ −_67827080.23-P1P2_01 (guide GAGCGAAACGCACGCTGAGG; listed as DNA, chemistry not fully specified)” here?
A: −0.4467

Q: What about the gamma_day10 (K562 CRISPRi cells [1]) of the same substance?
A: −0.3032

Q: What about the relative_activity_day5 (K562 CRISPRi cells [1]) of the same substance?
A: 0.4937

Q: And the relative_activity_day10 (K562 CRISPRi cells [2])?
A: 0.5881

Q: “EIF2S1_ −_67827080.23-P1P2_02 (guide GAGCGCAGCGCACGCTGAGG; listed as DNA, chemistry not fully specified)” was tested. Which gamma_day5 (K562 CRISPRi cells [1]) did it give?
A: −0.7288

Q: What about the gamma_day10 (K562 CRISPRi cells [1]) of the same substance?
A: −0.4556

Q: What about the relative_activity_day5 (K562 CRISPRi cells [1]) of the same substance?
A: 0.8055

Q: And the relative_activity_day10 (K562 CRISPRi cells [2])?
A: 0.8838

Q: “EIF2S1_ −_67827080.23-P1P2_06 (guide GAGCGAAGCGCGCGCTGAGG; listed as DNA, chemistry not fully specified)” was tested. Which gamma_day5 (K562 CRISPRi cells [1]) did it give?
A: −0.6688

Q: And the gamma_day10 (K562 CRISPRi cells [1])?
A: −0.3635

Q: And the relative_activity_day5 (K562 CRISPRi cells [1])?
A: 0.7393

Q: What about the relative_activity_day10 (K562 CRISPRi cells [2]) of the same substance?
A: 0.7051
